Reference: patent publication US20220089589A1, “SMALL MOLECULE DEGRADERS OF FKBP12 VIA RECRUITMENT OF VON HIPPEL-LINDAU E3 UBIQUITIN LIGASE (VHL) E3 UBIQUITIN LIGASE, AND USES IN dTAG SYSTEMS” (DANA-FARBER CANCER INSTITUTE, INC., priority 2019, published 2022)
“Also recorded” adds a separate entry of the source.

What was measured:
Type in all cases: cell-based
LACZ-FKBP12^F36V [1] = test: Immunoblotting of PATU-8902 LACZ-FKBP12^F36V clone (Example 6); details: 50 or 500 nM, 4 hrs
Description: (§1) PATU-8902 LACZ-FKBP12^F36V clone was plated in 6-well format, allowed to adhere overnight, and treated with 50 nM and 500 nM dTAG molecules for 4 hrs. Following treatment, cells were lysed in RIPA buffer on ice for 60 minutes. Lysates were clarified by centrifugation at 20,000×g for 10 minutes at 4° C. Immunoblotting was performed to determine changes in protein levels with an Odyssey CLx Imager. The indicated antibodies were employed including HA (hemagglutinin) to monitor LACZ-FKBP12^F36V degradation and α-TUBULIN as a loading control.

LACZ-FKBP12^F36V [2] = test: Immunoblotting of PATU-8902 LACZ-FKBP12^F36V clone, compound 1 and/or THAL-SNS-032 (Example 7), HA; details: 500 nM compound 1, 24 hrs, single agent
Description: (§2) PATU-8902 LACZ-FKBP12^F36V clone was plated in 6-well format, allowed to adhere overnight, and treated with DMSO and indicated doses of THAL-SNS-032 and/or 500 nM compound 1 for 24 hrs. Following treatment, cells were lysed in RIPA buffer on ice for 60 minutes. Lysates were clarified by centrifugation at 20,000×g for 10 minutes at 4° C. Immunoblotting was performed to determine changes in protein levels with an Odyssey CLx Imager. The indicated antibodies were employed including HA to monitor LACZ-FKBP12^F36V degradation, CDK9 to monitor CDK9 degradation and α-TUBULIN as a loading control.

FKBP12^F36V-KRAS^G12V [3] = test: Immunoblotting of PATU-8902 FKBP12^F36V-KRAS^G12V; KRAS^−/− clone (Example 8), HA; details: 50 or 500 nM, 4 hrs
Description: as §1, with “FKBP12^F36V-KRAS^G12V; KRAS^−/−” for “LACZ-FKBP12^F36V”, “HA” for “HA (hemagglutinin)”, “FKBP12^F36V-KRAS^G12V degradation, total and phosphorylated ERK to evaluate changes in ERK signaling, total and phosphorylated AKT to evaluate changes in AKT signaling” for “LACZ-FKBP12^F36V degradation”

pERK = test: Immunoblotting of PATU-8902 FKBP12^F36V-KRAS^G12V; KRAS^−/− clone (Example 8), ERK signaling; details: 50 or 500 nM, 4 hrs
Description: as §1, with “FKBP12^F36V-KRAS^G12V; KRAS^−/−” for “LACZ-FKBP12^F36V”, “HA” for “HA (hemagglutinin)”, “FKBP12^F36V-KRAS^G12V degradation, total and phosphorylated ERK to evaluate changes in ERK signaling, total and phosphorylated AKT to evaluate changes in AKT signaling” for “LACZ-FKBP12^F36V degradation”

pAKT = test: Immunoblotting of PATU-8902 FKBP12^F36V-KRAS^G12V; KRAS^−/− clone (Example 8), AKT signaling; details: 50 or 500 nM, 4 hrs
Description: as §1, with “FKBP12^F36V-KRAS^G12V; KRAS^−/−” for “LACZ-FKBP12^F36V”, “HA” for “HA (hemagglutinin)”, “FKBP12^F36V-KRAS^G12V degradation, total and phosphorylated ERK to evaluate changes in ERK signaling, total and phosphorylated AKT to evaluate changes in AKT signaling” for “LACZ-FKBP12^F36V degradation”

FKBP12^F36V-KRAS^G12V [4] = test: Immunoblotting of PATU-8902 FKBP12^F36V-KRAS^G12V; KRAS^−/− clone with carfilzomib or MLN4924 pre-treatment (Example 9); details: 500 nM, 4 hrs
Description: as §1, with “PATU-8902 FKBP12^F36V-KRAS^G12V; KRAS^−/−” for “PATU-8902 LACZ-FKBP12^F36V”, “with DMSO, Carflizomib (CARF) or MLN4924 (MLN) prior to treatment with DMSO or compound 1” for “with 50 nM and 500 nM dTAG molecules”, “HA” for “HA (hemagglutinin)”, “monitor FKBP12^F36V-KRAS^G12V” for “monitor LACZ-FKBP12^F36V”

FKBP12^F36V-KRAS^G12V [5] = test: Immunoblotting of 293T^WT FKBP12^F36V-KRAS^G12V cells; details: 50 or 500 nM, 24 hrs
Description: as §1, with “293T^WT or 293T^VHL−/− FKBP12^F36V-KRAS^G12V cells were plated” for “PATU-8902 LACZ-FKBP12^F36V clone was plated”, “for 24” for “for 4”, “HA” for “HA (hemagglutinin)”, “monitor FKBP12^F36V-KRAS^G12V” for “monitor LACZ-FKBP12^F36V”

FKBP12^F36V-KRAS^G12V [6] = test: Immunoblotting of 293T^VHL−/− FKBP12^F36V-KRAS^G12V cells; details: 50 or 500 nM, 24 hrs
Description: as §1, with “293T^WT or 293T^VHL−/− FKBP12^F36V-KRAS^G12V cells were plated” for “PATU-8902 LACZ-FKBP12^F36V clone was plated”, “for 24” for “for 4”, “HA” for “HA (hemagglutinin)”, “monitor FKBP12^F36V-KRAS^G12V” for “monitor LACZ-FKBP12^F36V”

[7] = system: PATU-8902 FKBP12^F36V-KRAS^G12V; KRAS^−/− clone; test: Anti-proliferation via CellTiter-Glo, PATU-8902 FKBP12^F36V-KRAS^G12V; KRAS^−/− clone (Example 11); details: 0.00063-20 μM, 72 hrs
Description: (§3) PATU-8902 LACZ-FKBP12^F36V or FKBP12^F36V-KRAS^G12V; KRAS^−/− clones were plated in 384-well format, allowed to adhere overnight, and treated with various dTAG molecules from compound stock plates using a JANUS® Workstation pin tool for 72 hrs. To measure cell viability, CellTilter-Glo® was added to wells for 15 minutes at r.t. and luminescence was measured on an EnVision™ 2104 Multilabel Plate Reader.

[8] = system: PATU-8902 LACZ-FKBP12^F36V clone; test: Anti-proliferation via CellTiter-Glo, PATU-8902 LACZ-FKBP12^F36V control clone (Example 11); details: 0.00063-20 μM, 72 hrs
Description: as §3

[9] = system: PATU-8902 FKBP12^F36V-KRAS^G12V; KRAS^−/− clone; test: Anti-proliferation via CellTiter-Glo, PATU-8902 FKBP12^F36V-KRAS^G12V; KRAS^−/− clone (Example 12); details: 0.000063-2 μM, 72 hrs
Description: as §3, with “Cell Tilter-Glo®” for “CellTilter-Glo®”

[10] = system: PATU-8902 LACZ-FKBP12^F36V clone; test: Anti-proliferation via CellTiter-Glo, PATU-8902 LACZ-FKBP12^F36V control clone (Example 12); details: 0.000063-2 μM, 72 hrs
Description: as §3, with “Cell Tilter-Glo®” for “CellTilter-Glo®”

[11] = system: PATU-8902 FKBP12^F36V-KRAS^G12V; KRAS^−/− clone; test: Cell transformation by growth in ultra-low attachment conditions, PATU-8902 FKBP12^F36V-KRAS^G12V; KRAS^−/− clone (Example 13); details: 0.000063-2 μM, 120 hrs
Description: as §3, with “format in ultra-low attachment conditions,” for “format,”, “form 3D-spheroids” for “adhere”, “120” for “72”, “transformation, Cell Tilter-Glo®” for “viability, CellTilter-Glo®”, “room temperature” for “r.t.”

[12] = system: PATU-8902 LACZ-FKBP12^F36V clone; test: Cell transformation by growth in ultra-low attachment conditions, PATU-8902 LACZ-FKBP12^F36V control clone (Example 13); details: 0.000063-2 μM, 120 hrs
Description: as §3, with “format in ultra-low attachment conditions,” for “format,”, “form 3D-spheroids” for “adhere”, “120” for “72”, “transformation, Cell Tilter-Glo®” for “viability, CellTilter-Glo®”, “room temperature” for “r.t.”

FKBP12^F36V-GFP = test: Immunoblotting of EWS502 FKBP12^F36V-GFP cells; details: dTAG-13 10-5000 nM, compound 1 50-5000 nM, 24 hrs
Description: (§4) EWS502 FKBP12^F36V-GFP and FKBP12^F36V-EWS/FLI; EWS/FLP^−/− cells were plated in 6-well format, allowed to adhere overnight, and treated with (10-5000 nM) dTAG-13 or (50-5000 nM) compound 1 for 24 hrs. Following treatment, cells were lysed in Cell Lysis Buffer (Cell Signaling Technology®) on ice for 60 minutes. Lysates were clarified by centrifugation at 20,000×g for 10 minutes at 4° C. Immunoblotting was performed to determine changes in protein levels upon incubation with the appropriate horseradish peroxidase-conjugated secondary antibodies. The indicated antibodies were employed including HA to monitor FKBP12^F36V-GFP or FKBP12^F36V-EWS/FLI degradation and Vinculin as a loading control.

FKBP12^F36V-EWS/FLI = test: Immunoblotting of EWS502 FKBP12^F36V-EWS/FLI; EWS/FLI^−/− cells; details: dTAG-13 10-5000 nM, compound 1 50-5000 nM, 24 hrs, EWS502 cells
Description: as §4

CDK9 = target: T1, CDK9 (Homo sapiens, UniProt P50750); test: Immunoblotting of PATU-8902 LACZ-FKBP12^F36V clone, compound 1 and/or THAL-SNS-032 (Example 7), CDK9; details: indicated doses of THAL-SNS-032, 24 hrs, single agent
T1 construct: endogenous in cells; host or cells: PATU-8902 LACZ-FKBP12^F36V clone
Description: as §2

For `CC[C@H](C(=O)N1CCCC[C@H]1C(=O)O[C@H](CCc1ccc(OC)c(OC)c1)c1ccccc1OCC(=O)NCCCCCCC(=O)N[C@H](C(=O)N1C[C@H](O)C[C@H]1C(=O)N[C@@H](C)c1ccc(-c2scnc2C)cc1)C(C)(C)C)c1cc(OC)c(OC)c(OC)c1` [Compound 1, (R)-3-(3,4-dimethoxyphenyl)-1-(2-(2-((7-(((S)-1-((2S,4R)-4-hydroxy-2-(((S)-1-(4-(4-methylthiazol-5-yl)phenyl)ethyl)carbamoyl)pyrrolidin-1-yl)-3,3-dimethyl-1-oxobutan-2-yl)amino)-7-oxoheptyl)amino)-2-oxoethoxy)phenyl)propyl (S)-1-((S)-2-(3,4,5-trimethoxyphenyl)butanoyl)piperidine-2-carboxylate], the “degradation of LACZ-FKBP12^F36V (immunoblot)” value (LACZ-FKBP12^F36V [1]) was “rapid degradation; also recorded: potent degradation”, the “degradation of LACZ-FKBP12^F36V (immunoblot)” value (LACZ-FKBP12^F36V [2]) was “potent degradation” and the “degradation of FKBP12^F36V-KRAS^G12V (immunoblot)” value (FKBP12^F36V-KRAS^G12V [3]) was “potent degradation”. For the same compound, the “pERK levels (immunoblot)” value (pERK) was “pronounced diminished levels”, the “pAKT levels (immunoblot)” value (pAKT) was “pronounced diminished levels” and the “degradation of FKBP12^F36V-KRAS^G12V (immunoblot)” value (FKBP12^F36V-KRAS^G12V [4]; DMSO pre-treatment) was “potent degradation”. For the same compound, the “degradation of FKBP12^F36V-KRAS^G12V after pre-treatment with Nedd8 activating enzyme inhibitor MLN4924 (MLN)” value (FKBP12^F36V-KRAS^G12V [4]; MLN4924 pre-treatment) was “rescued”, the “degradation of FKBP12^F36V-KRAS^G12V after pre-treatment with proteasome-inhibitor carfilzomib (CARF)” value (FKBP12^F36V-KRAS^G12V [4]; carfilzomib pre-treatment) was “rescued” and the “degradation of FKBP12^F36V-KRAS^G12V in 293T^WT cells (immunoblot)” value (FKBP12^F36V-KRAS^G12V [5]) was “potent degradation”. The “degradation of FKBP12^F36V-KRAS^G12V in 293T^VHL−/− cells (immunoblot)” value (FKBP12^F36V-KRAS^G12V [6]) was “not and did not degrade”, the “anti-proliferative effects / loss of cell viability (% DMSO control)” value [7] was “Effective loss of viability; also recorded: potent anti-proliferative effects” and the “anti-proliferative effects on LACZ-FKBP12^F36V control clone” value [8] was “limited effects”. For the same compound, the “anti-proliferative effects / loss of cell viability (% DMSO control)” value [9] was “Effective loss of viability; also recorded: potent anti-proliferative effects”, the “anti-proliferative effects on LACZ-FKBP12^F36V control clone” value [10] was “limited effects” and the “loss of cell transformation (3D-spheroids, % DMSO control)” value [11] was “Effective loss of viability; also recorded: potent loss of cell transformation”. The “effects on cell transformation of LACZ-FKBP12^F36V control clone” value [12] was “limited effects”, the “degradation of FKBP12^F36V-GFP (immunoblot)” value (FKBP12^F36V-GFP) was “Degradation of GFP (control) is observed; also recorded: potent degradation” and the “degradation of FKBP12^F36V-EWS/FLI (immunoblot)” value (FKBP12^F36V-EWS/FLI) was “potent degradation”.
`CC(C)(C)c1cnc(CSc2cnc(NC(=O)C3CCN(CC(=O)NCCOCCOCCOCCNc4cccc5c4C(=O)N(C4CCC(=O)NC4=O)C5=O)CC3)s2)o1` (stereo not shown) [THAL-SNS-032] was tested, and the “degradation of CDK9 (immunoblot)” value (CDK9) was “potent degradation”.
